Source: article PMC9050923, “6,N^2-Diaryl-1,3,5-triazine-2,4-diamines: synthesis, antiproliferative activity and 3D-QSAR modeling” (RSC Advances, 2020)
Where two headings read alike, the source gives them in different places.

Legend:
Assay type in all cases: cell-based
MDA-MB231 = assay: MTT assay, MDA-MB231 breast cancer cells; details: for viability at 10 µM / GI50: Homo sapiens, MDA-MB-231; for viability at 10 µM: read-out: Percentage of cell viability MDA-MB231
Method: (§1) The prepared compounds 1–126 were tested on three breast cancer cell lines namely, MDA-MB231, SKBR-3 and MCF-7 using MTT assay. SKBR-3 and MCF-7 cell lines are estrogen and progesterone hormone positive cell lines often used as a model for the hormone therapy.[18] MDA-MB231 is triple negative breast cancer cell line, which is negative to estrogen and progesterone receptors and human epidermal growth factor receptor 2, a perfect model for chemotherapy.[18] Initially, all the prepared compounds 1–126 were tested on these three cancer cell lines at the screening concentration (10 μM) and percentage of cell viability was calculated 72 h after the treatment (Table 1).
(§2) The growth inhibitory effect of the compounds was determined on breast tumor cell line (MDA-MB231, SKBR-3 and MCF-7) at different concentrations with methotrexate and nilotinib as positive controls (Table 2).
(§3) The cytotoxic activity of 6,N^2-diaryl-1,3,5-triazine-2,4-diamines (1–126) was evaluated against three breast carcinoma cell lines (MDA-MB231, SKBR-3, and MCF-7) and normal breast cell line (MCF-10A) by MTT assay.[22] All cells were obtained from the American Type Culture Collection and were grown in 10% fetal bovine serum and 1% pen-strep antibiotic supplemented media (DMEM for MDA-MB231 and SKBR-3, RPMI for MCF-7, and MEGM for MCF-10A). For MTT assay, 20 000 to 75 000 cells per mL (based on the doubling time for each cell line) were seeded in 96 well plates and incubated for 24 h at 37 °C in 5% CO2 incubator. Then, compounds at different concentrations were added followed by the incubation at 37 °C for 72 h. After that, MTT solution (0.5 mg mL^−1) was added and the plates were incubated for another 4 h. The supernatant was then discarded and 100 μL of DMSO was added to each well. The plates were then read by Tecan NanoQuant (model: infinite m200 pro) plate reader and absorbance was measured at 570 nm. GI50 values were calculated using sigmoidal concentration–response curves (see ESI ^†) generated using the GraphPad Prism 7 program. Three independent experiments were carried out and the data were represented as mean of the three experiments.

SKBR-3 = assay: MTT assay, SKBR-3 breast cancer cells; details: for viability at 10 µM / GI50: Homo sapiens, SK-BR-3; for viability at 10 µM: read-out: Percentage of cell viability SKBR-3; for GI50: 72 h, mean of three independent experiments ± SEM
Method: as §1, §2, §3

MCF-7 = assay: MTT assay, MCF-7 breast cancer cells; details: for viability at 10 µM / GI50: Homo sapiens; for viability at 10 µM: MCF7, 10 μM, read-out: Percentage of cell viability MCF-7; for GI50: MCF7, 72 h, mean of three independent experiments ± SEM
Method: as §1, §2, §3

MCF-10A = assay: MTT assay, MCF-10A normal breast cells; details: Homo sapiens, 72 h, read-out: GI50 (μM) ± SEM MCF-10A
Method: All the compounds, selected for determination of GI50 values against MDA-MB231 cells, were also used for the experiments with MCF-10A normal breast cells.
as §3

[1] = 10 μM, 72 h after the treatment, MTT, mean of three independent experiments
[2] = 72 h, MTT, mean of three independent experiments ± SEM, read-out: GI50 (μM) ± SEM MDA-MB231
[3] = −log[GI50], MDA-MB231, read-out: Experimental pGI50 (converted)
[4] = 72 h after the treatment, mean of three independent experiments

| GI50 (MDA-MB231; [2]) [µM] | GI50 (MDA-MB231; [3]) [µM] | GI50 (SKBR-3; MTT) [µM] | GI50 (MCF-7) [µM] | Compound | viability at 10 µM (MDA-MB231; [1]) [%] | viability at 10 µM (SKBR-3; [1]) [%] | viability at 10 µM (MCF-7; [4]) [%] | GI50 (MCF-10A) [µM] | activity against SKBR-3 cells (in words) (SKBR-3; SAR discussion, compared with MDA-MB231) | Percentage of cell viability MDA-MB231 (MDA-MB231; [1]) [%] | Percentage of cell viability SKBR-3 (SKBR-3; [1]) [%] | Percentage of cell viability MCF-7 (MCF-7; 10 μM, 72 h after the treatment, mean of three independent experiments) [%] |
| --- | --- | --- | --- | --- | --- | --- | --- | --- | --- | --- | --- | --- |
| 9.21 ± 0.38 | 9.12 | > 20 | > 20 | Nc1nc(Nc2ccc(F)cc2)nc(-c2cccc(F)c2)n1 [Compound 14] | 50 | 100 | 78 | > 25 |  |  |  |  |
| 13.1 ± 0.91 | 13.2 | 17.2 ± 1.07 | > 20 | Nc1nc(Nc2ccc(Br)cc2)nc(-c2cccc(F)c2)n1 [Compound 16] | 43 | 89 | 80 | > 25 |  |  |  |  |
| 3.96 ± 0.17 | 3.98 | > 20 | > 20 | Cc1ccc(Nc2nc(N)nc(-c3cccc(F)c3)n2)cc1 [Compound 17] | 29 | 90 | 71 | > 25 |  |  |  |  |
| 6.18 ± 0.43 | 6.17 | 16.6 ± 1.38 | > 20 | COc1ccc(Nc2nc(N)nc(-c3cccc(F)c3)n2)cc1 [Compound 18] | 46 | 74 | 76 | > 25 |  |  |  |  |
| 8.56 ± 0.59 | 8.51 | > 20 | 18.2 ± 1.28 | Nc1nc(Nc2ccc(OC(F)(F)F)cc2)nc(-c2cccc(F)c2)n1 [Compound 19] | 50 | 100 | 76 | > 25 |  |  |  |  |
| 14.1 ± 1.52 | 14.1 | 19.4 ± 2.39 | > 20 | Nc1nc(Nc2ccc(F)cc2)nc(-c2ccc(Cl)cc2)n1 [Compound 36] | 49 | 98 | 100 | > 25 |  |  |  |  |
| 0.17 ± 0.02 | 0.17 | 1.26 ± 0.18 | > 20 | Cc1ccc(Nc2nc(N)nc(-c3cccc(C)c3)n2)cc1 [Compound 56] | 12 | 62 | 67 | > 25 |  |  |  |  |
| 15.2 ± 1.01 | 15.1 | > 20 | > 20 | Cc1cccc(-c2nc(N)nc(Nc3ccc(OC(F)(F)F)cc3)n2)c1 [Compound 58] | 50 | 100 | 73 | > 25 |  |  |  |  |
| 12.2 ± 1.15 | 12.3 | > 20 | > 20 | Cc1ccc(-c2nc(N)nc(Nc3ccccc3F)n2)cc1 [Compound 61] | 50 | 79 | 73 | > 25 |  |  |  |  |
| 10.7 ± 0.73 | 10.7 | > 20 | 20.2 ± 1.95 | Cc1ccc(-c2nc(N)nc(Nc3ccc(F)cc3)n2)cc1 [Compound 62] | 48 | 78 | 100 | > 25 |  |  |  |  |
| 0.32 ± 0.04 | 0.324 | > 20 | > 20 | COc1ccc(-c2nc(N)nc(Nc3ccccc3F)n2)cc1 [Compound 70] | 9 | 46 | 63 | > 25 |  |  |  |  |
| 0.23 ± 0.03 | 0.229 | 1.1 ± 0.01 | > 20 | COc1ccc(-c2nc(N)nc(Nc3ccccc3Cl)n2)cc1 [Compound 73] | 10 | 47 | 84 | > 25 | equipotent |  |  |  |
| 1.33 ± 0.17 | 1.32 | 0.18 ± 0.04 | 18.3 ± 1.11 | COc1ccc(-c2nc(N)nc(Nc3cccc(Cl)c3)n2)cc1 [Compound 74] | 22 | 45 | 86 | > 25 |  |  |  |  |
| 0.95 ± 0.04 | 0.955 | 3.38 ± 0.36 | > 20 | COc1ccc(-c2nc(N)nc(Nc3cccc(C)c3)n2)cc1 [Compound 77] | 22 | 40 | 79 | > 25 |  |  |  |  |
| 13.2 ± 0.93 | 13.2 | 2.15 ± 0.12 | > 20 | COc1ccc(-c2nc(N)nc(Nc3ccccc3OC)n2)cc1 [Compound 78] | 50 | 66 | 57 | > 25 |  |  |  |  |
| 14 ± 1.33 |  | 15.6 ± 1.06 | > 20 | COc1ccc(-c2nc(N)nc(Nc3cccnc3)n2)cc1 [Compound 81] | 46 | 77 | 91 | > 25 |  |  |  |  |
| 12.8 ± 0.76 | 12.9 | > 20 | > 20 | COc1ccccc1Nc1nc(N)nc(-c2ccc(OC(F)(F)F)cc2)n1 [Compound 95] | 46 | 81 | 88 | > 25 |  |  |  |  |
| 11.5 ± 1.51 | 11.5 | > 20 | > 20 | Nc1nc(Nc2cccnc2)nc(-c2ccc(OC(F)(F)F)cc2)n1 [Compound 99] | 33 | 81 | 85 | > 25 |  |  |  |  |
| 0.36 ± 0.07 | 0.363 | 4.19 ± 0.37 | > 20 | CN(C)c1ccc(-c2nc(N)nc(Nc3ccccc3)n2)cc1 [Compound 100] | 21 | 61 | 80 | > 25 |  |  |  |  |
| 0.06 ± 0.001 | 0.0603 | 0.29 ± 0.04 | > 20 | CN(C)c1ccc(-c2nc(N)nc(Nc3ccccc3F)n2)cc1 [Compound 101] | 28 | 51 | 88 | > 25 |  |  |  |  |
| 7.2 ± 0.94 | 7.24 | > 20 | > 20 | CN(C)c1ccc(-c2nc(N)nc(Nc3ccc(F)cc3)n2)cc1 [Compound 102] | 32 | 88 | 90 | > 25 |  |  |  |  |
| 4.17 ± 0.33 | 4.17 | 3.63 ± 0.23 | > 20 | COc1ccccc1Nc1nc(N)nc(-c2ccc(N(C)C)cc2)n1 [Compound 103] | 28 | 48 | 88 | > 25 |  |  |  |  |
| 13.4 ± 1.18 | 13.5 | > 20 | > 20 | Nc1nc(Nc2ccccc2)nc(-c2ccc(OCc3ccccc3)cc2)n1 [Compound 110] | 51 | 75 | 100 | > 25 |  |  |  |  |
|  |  |  |  | COc1ccc(Nc2nc(N)nc(-c3cccs3)n2)cc1 [Compound 123, N ^2-(4-Methoxyphenyl)-6-(thiophen-2-yl)-1,3,5-triazine-2,4-diamine] | 93 | 88 | 80 |  |  |  |  |  |
|  |  |  |  | Nc1nc(Nc2ccc(OC(F)(F)F)cc2)nc(-c2cccs2)n1 [Compound 124] | 100 | 86 | 85 |  |  |  |  |  |
|  |  |  |  | CC(C)c1ccc(Nc2nc(N)nc(-c3cccs3)n2)cc1 [Compound 125] | 100 | 86 | 89 |  |  |  |  |  |
|  |  |  |  | Nc1nc(Nc2cccnc2)nc(-c2cccs2)n1 [Compound 126] | 100 | 91 | 86 |  |  |  |  |  |
|  |  |  |  | N ^2-(4-Methoxyphenyl)-6-(4-methylphenyl)-1,3,5-triazine-2,4-diamine [Compound 65] |  |  |  |  |  | 97 | 88 | 87 |
